Holding throughout (type): biochemical
The target in assay [1] is T1, human vanin-1 (Homo sapiens (Human), UniProt O95497). The assay is described as follows: Human Vanin-1 Enzyme Assay 2. The conditions noted are these: 1 nM human vanin-1, 10 uM substrate, 45 min. On the procedure:
Human Vanin-1 Enzyme Assay 2.
(§1) The in vitro assay measures enzymatic cleavage of the fluorescently-labeled vanin substrate, pantetheine 7-amino-4-trifluoromethylcoumarin, by human vanin-1.
(§2) The vanin-1 protein was prepared in-house from a construct expressing the extracellular domain of human vanin-1 (GenBank ID NM_004666) preceded N-terminally by the honey bee melittin signal peptide, a GSG linker sequence, a His6X tag and a FLAG tag. The secreted, soluble enzyme was purified from the conditioned medium from a CHO cell line stably expressing the resulting protein. Enzyme purification was performed through sequential Ni NTA and size-exclusion chromatography steps.
On the day of the assay, dose response plates were prepared by diluting the inhibitors in DMSO at compound concentration 100-fold the final in-assay concentration. Concentration series were prepared by serially diluting in DMSO in a half-log series for a total of 11 data points. Intermediate compound plates containing compound in 10% DMSO were then created by diluting the compounds 10-fold in assay buffer consisting of 50 mM Tris-HCl pH=8.0, 50 mM KCl, 0.005% Brij-35 and 1.5 mM cysteamine. To begin the assay 3 μL were transferred from the intermediate compound plate to the assay plate.
A working solution of human vanin-1 was prepared by diluting the enzyme stock to 1.25 nM in assay buffer. Next, 24 μL of the vanin-1 working solution were transferred to the assay plate. The enzyme reaction was then initiated by the addition of 3 μL of 100 μM pantetheine 7-amino-4-trifluoromethylcoumarin prepared in assay buffer. The final concentrations in the assay were 1 nM human vanin-1 and 10 uM substrate. The final concentration of DMSO was 1%. The assay plates were incubated for 45 minutes and before they were read on a Spectramax M5 using a 405 nm excitation wavelength and a 505 nm emission wavelength for detection.

Assay [2] addresses T1, human vanin-1. The assay is described as follows: Human Vanin-1 Enzyme Assay 3. Conditions: 2 nM human vanin-1, 10 uM substrate, 15 min. How it is done:
Human Vanin-1 Enzyme Assay 3.
as §1, §2
On the day of the assay, dose response plates were prepared by diluting the inhibitors in DMSO at compound concentration 100-fold the final in-assay concentration. Concentration series were prepared by serially diluting in DMSO in a two-fold series for a total of 11 data points. Intermediate compound plates containing compound in 10% DMSO were then created by diluting the compounds 10-fold in assay buffer consisting of 50 mM Tris-HCl pH=8.0, 50 mM KCl, 0.005% Brij-35 and 1.5 mM cysteamine. To begin the assay 3 μL were transferred from the intermediate compound plate to the assay plate.
A working solution of human vanin-1 was prepared by diluting the enzyme stock to 2.5 nM in assay buffer. Next, 24 μL of the vanin-1 working solution were transferred to the assay plate. The enzyme reaction was then initiated by the addition of 3 μL of 100 μM pantetheine 7-amino-4-trifluoromethylcoumarin prepared in 5 uM acetic acid. The final concentrations in the assay were 2 nM human vanin-1 and 10 uM substrate. The final concentration of DMSO was 1%. The assay plates were incubated at room temperature for 15 minutes and before they were read on a Tecan Safire using a 405 nm excitation wavelength and a 505 nm emission wavelength for detection.

For assay [3], the target named is T1, human vanin-1. The assay is described as follows: Human Vanin-1 Enzyme Assay 1. The conditions noted are these: 25 pM human vanin-1, 50 uM pantetheine 7-amino-4-trifluoromethylcoumarin, 30 min preincubation, 60 min. On the procedure: Human Vanin-1 Enzyme Assay 1.
as §1, §2
The test inhibitors were solubilized in DMSO to a stock concentration of 30 mM. On the day of the assay, dose response plates were prepared by diluting the inhibitors in DMSO at compound concentration 200-fold the final in-assay concentration. Intermediate concentrations were prepared by diluting in DMSO in a four-fold series for a total of 11 data points.
To prepare a working solution of human vanin-1, the enzyme was diluted to 33.3 pM in the assay buffer consisting of 50 mM Tris-HCl pH=8.0, 50 mM KCl, 0.005% Brij-35 and […] cysteamine. To begin the assay 100 nL was transferred from the compound plate to the assay plate. Next, 15 μL of the vanin-1 working solution were transferred to the assay plate. The inhibitor and enzyme were incubated at room temperature for 30 minutes. The enzyme reaction was then initiated by the addition of 5 μL of 200 μM pantetheine 7-amino-4-trifluoromethylcoumarin prepared in assay buffer. The final concentrations in the assay were 25 pM human vanin-1 and 50 uM substrate. The final concentration of DMSO was 0.5%. The assay plates were incubated for 60 minutes and before they were read on a Perkin Elmer EnVision Model 2103 using a 405 nm excitation wavelength and a 510 nm emission wavelength for detection.

Broadly, the IC50 is the concentration that gives 50% inhibition. A low value points to higher potency.

T1 sequence (O95497 22-491): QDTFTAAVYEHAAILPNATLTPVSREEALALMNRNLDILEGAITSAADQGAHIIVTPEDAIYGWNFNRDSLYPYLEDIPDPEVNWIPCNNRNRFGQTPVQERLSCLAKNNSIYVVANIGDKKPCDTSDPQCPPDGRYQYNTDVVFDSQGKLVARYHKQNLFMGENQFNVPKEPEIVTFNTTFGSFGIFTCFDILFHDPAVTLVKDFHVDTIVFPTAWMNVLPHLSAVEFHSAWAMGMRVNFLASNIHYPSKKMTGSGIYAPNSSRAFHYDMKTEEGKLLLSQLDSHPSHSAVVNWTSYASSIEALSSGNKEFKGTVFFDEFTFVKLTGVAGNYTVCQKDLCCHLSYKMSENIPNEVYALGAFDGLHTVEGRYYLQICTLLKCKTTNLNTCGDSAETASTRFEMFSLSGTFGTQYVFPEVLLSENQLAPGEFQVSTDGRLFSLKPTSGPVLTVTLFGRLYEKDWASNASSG

As for `CC(Nc1ncc(C(=O)c2cccc(C#N)c2)cn1)c1cccnc1` (stereo not drawn) [Example 7, 3-[(2-{[1-(pyridin-3-yl)ethyl]amino}pyrimidin-5-yl)carbonyl]benzonitrile], the IC50 on human vanin-1 [1] worked out at 3.9 nM.
Still for that read-out and setting: the result for `O=C(c1cnc(NCc2cncnc2)nc1)c1ccnc(C(F)(F)F)c1` [Example 141, {2-[(pyrimidin-5-ylmethyl)amino]pyrimidin-5-yl}[2-(trifluoromethyl)pyridin-4-yl]methanone] reads 280 nM.
For the compound `O=C(c1cnc(OCc2ccc(Cl)cc2)nc1)c1cccc(C(F)(F)F)c1` [Example 47, {2-[(4-chlorobenzyl)oxy]pyrimidin-5-yl}[3-(trifluoromethyl)phenyl]methanone], the IC50 at human vanin-1 [2] was greater than 729 nM; on human vanin-1 [3], greater than 5130 nM.
As to `N#Cc1cccc(CNc2ncc(C(=O)c3cccc(C(F)(F)F)c3)cn2)c1` [Example 62, 3-[({5-[3-(trifluoromethyl)benzoyl]pyrimidin-2-yl}amino)methyl] benzonitrile], the values for the IC50 against human vanin-1 [2] and against human vanin-1 [3] were greater than 123 nM and 150 nM, respectively.
The corresponding values for `CS(=O)(=O)c1cccc(C(=O)c2cnc(NCc3ccc(F)cc3)nc2)c1` [Example 96, {2-[(4-fluorobenzyl)amino]pyrimidin-5-yl}[3-(methylsulfonyl)phenyl]methanone] are 415 nM and 14.2 nM.
`N#Cc1ccc(CNc2ncc(C(=O)c3ccc(F)c(C(F)(F)F)c3)cn2)cc1` [Example 84, 4-[({5-[4-fluoro-3-(trifluoromethyl)benzoyl]pyrimidin-2-yl}amino)methyl] benzonitrile]: the IC50 at human vanin-1 [2] was determined as 111 nM; against human vanin-1 [3] it was 503 nM.
The corresponding values for `N#Cc1cccc(CNc2ncc(C(=O)c3cccc(C#N)c3)cn2)c1` [Example 64, 3-({[5-(3-cyanobenzoyl)pyrimidin-2-yl]amino}methyl) benzonitrile] are 74.4 nM and 99.2 nM.
In the case of `O=C(c1cnc(NCc2ccncc2)nc1)c1ccc(F)c(C(F)(F)F)c1` [Example 82, [4-fluoro-3-(trifluoromethyl)phenyl]{2-[(pyridin-4-ylmethyl)amino]pyrimidin-5-yl}methanone], the IC50 at human vanin-1 [2] came to 55.5 nM; against human vanin-1 [3], 111 nM.
In the case of `O=C(c1cnc(NCc2ccc(F)cc2)nc1)c1cc(F)cc(C(F)(F)F)c1` [Example 127, {2-[(4-fluorobenzyl)amino]pyrimidin-5-yl}[3-fluoro-5-(trifluoromethyl)phenyl]methanone], the half-maximal inhibitory concentration (IC50) is 36.2 nM on human vanin-1 [2] and 3950 nM against human vanin-1 [3].
In the same order, the values of `O=C(c1cnc(NCc2ccccc2)nc1)c1cccc(C(F)(F)F)c1` [Example 35, [2-(benzylamino)pyrimidin-5-yl][3-(trifluoromethyl)phenyl]methanone] are 20.5 nM and 242 nM.
With `NC(=O)c1ccc(CNc2ncc(C(=O)c3cccc(C(F)(F)F)c3)cn2)cn1` [Example 69, 5-[({5-[3-(trifluoromethyl)benzoyl]pyrimidin-2-yl}amino)methyl] pyridine-2-carboxamide], the IC50 at human vanin-1 [2] is 46.8 nM; against human vanin-1 [3], 29.4 nM.
In the same order, the values of `O=C(c1ccccc1)c1cnc(NCc2ccccc2)nc1` [Example 99, [2-(benzylamino)pyrimidin-5-yl](phenyl) methanone] are 537 nM and 1680 nM.
In the same order, the values of `NC(=O)c1ccc(CNc2ncc(C(=O)c3ccc(F)c(C(F)(F)F)c3)cn2)cn1` [Example 70, 5-[({5-[4-fluoro-3-(trifluoromethyl)benzoyl]pyrimidin-2-yl}amino)methyl] pyridine-2-carboxamide] are 77.8 nM and 140 nM.
In the same order, the values of `N#Cc1ccc(CNc2ncc(C(=O)c3cc(F)cc(C(F)(F)F)c3)cn2)cc1` [Example 94, 4-[({5-[3-fluoro-5-(trifluoromethyl)benzoyl]pyrimidin-2-yl}amino)methyl] benzonitrile] are 987 nM and 2200 nM.
For `O=C(O)c1ccc(CNc2ncc(C(=O)c3ccc(F)c(C(F)(F)F)c3)cn2)cc1` [Example 89, 4-[({5-[4-fluoro-3-(trifluoromethyl)benzoyl]pyrimidin-2-yl}amino)methyl] benzoic acid], the IC50 is 615 nM at human vanin-1 [2] and 1000 nM on human vanin-1 [3].
In the same order, the values of `O=C(c1cnc(OCc2ccccc2)nc1)c1cccc(C(F)(F)F)c1` [Example 155, [2-(benzyloxy)pyrimidin-5-yl][3-(trifluoromethyl)phenyl]methanone] are greater than 1110 nM and greater than 20000 nM.
In the same order, the values of `O=C(c1cnc(OCc2ccc(F)cc2)nc1)c1cccc(C(F)(F)F)c1` [Example 46, {2-[(4-fluorobenzyl)oxy]pyrimidin-5-yl}[3-(trifluoromethyl)phenyl]methanone] are greater than 213 nM and greater than 20000 nM.
In the same order, the values of `O=C(c1cnc(NCc2ccc(F)cc2)nc1)c1ccc(F)c(C(F)(F)F)c1` [Example 85, {2-[(4-fluorobenzyl)amino]pyrimidin-5-yl}[4-fluoro-3-(trifluoromethyl)phenyl]methanone] are 52.8 nM and 1130 nM.
Regarding `O=C(c1cnc(NCc2cccnc2)nc1)c1ccc(F)c(C(F)(F)F)c1` [Example 81, [4-fluoro-3-(trifluoromethyl)phenyl]{2-[(pyridin-3-ylmethyl)amino]pyrimidin-5-yl}methanone], the concentration for half-maximal inhibition (IC50) at human vanin-1 [2] was greater than 16.9 nM; on human vanin-1 [3], 3.4 nM.
In the same order, the values of `N#Cc1cccc(CNc2ncc(C(=O)c3cccc(Cl)c3)cn2)c1` [Example 26, 3-({[5-(3-chlorobenzoyl)pyrimidin-2-yl]amino}methyl) benzonitrile] are 63.2 nM and 4170 nM.
The corresponding values for `Cc1cccc(C(=O)c2cnc(NCc3ccncc3)nc2)c1` [Example 39, (3-methylphenyl){2-[(pyridin-4-ylmethyl)amino]pyrimidin-5-yl}methanone] are 660 nM and 467 nM.
In the same order, the values of `O=C(c1cnc(NCc2ccccn2)nc1)c1ccc(F)c(C(F)(F)F)c1` [Example 80, [4-fluoro-3-(trifluoromethyl)phenyl]{2-[(pyridin-2-ylmethyl)amino]pyrimidin-5-yl}methanone] are 30.1 nM and 384 nM.
`CCN1CCCC1CNc1ncc(C(=O)c2cccc(C(F)(F)F)c2)cn1` (stereo not drawn) [Example 165, (2-{[(1-ethylpyrrolidin-2-yl)methyl]amino}pyrimidin-5-yl)[3-(trifluoromethyl)phenyl]methanone]: the 50% inhibitory concentration (IC50) against human vanin-1 [2] was found to be 6900 nM; against human vanin-1 [3], 11900 nM.
In the same order, the values of `O=C(c1cnc(NCc2ccccc2)nc1)c1ccc2c(c1)OCCO2` [Example 97, [2-(benzylamino)pyrimidin-5-yl](2,3-dihydro-1,4-benzodioxin-6-yl)methanone] are 873 nM and 4850 nM.
In the same order, the values of `O=C(c1cccc(Cl)c1)c1ccc(NCc2ccccc2)nn1` [Example 86, [6-(benzylamino)pyridazin-3-yl](3-chlorophenyl) methanone] are 758 nM and 14700 nM.

These data come from US10308615B2, “Heterocyclic compounds as inhibitors of Vanin-1 enzyme” (Pfizer Inc., priority 2015, dated 2019).
